Assay results as given in paper PMC12700550, “DLL4^+ neutrophils promote Notch1-mediated endothelial PANoptosis to exacerbate acute lung injury in sepsis” (The Journal of Clinical Investigation, 2025).
Values joined by “and” are separate entries in the source; they are usually repeats but may differ in a detail not shown here. Equal values may be shown once.

Tests used:
[1] = tested on: c-caspase-3; assay: c/t caspase-3 (apoptosis) in PVECs cocultured with neutrophils, Western blot; type: cell-based, mouse; conditions: for c/t caspase-3 (Figure 4H): 10 μM peptide, 16 h, individual replicates
Description: Wild-type PVECs (5 × 10^5) were cocultured with sorted DLL4^+ neutrophils (5 × 10^5) or DLL4^– neutrophils (5 × 10^5) and then treated with different dosages of peptides or 10 μM DAPT (Thermo Fisher Scientific), 10 μM NDI (GenScript), or 10 μM NDI scramble (GenScript). Notch1-knockdown PVECs (5 × 10^5) were cocultured with sorted DLL4^+ neutrophils (5 × 10^5). After 16 hours, neutrophils were washed away by PBS, and PVECs were collected for further experiments. Cell viability was evaluated by propidium iodide staining using the FITC Annexin V Apoptosis Detection Kit I (catalog 556547, BD Pharmingen). Cell death was quantified as the percentage of propidium iodide–positive cells by flow cytometry.
PVECs and lung tissue were collected in previous steps. Whole-cell proteins were extracted, and the protein concentration was measured using an ABC protein assay kit (catalog 5000002, Bio-Rad). Proteins were separated using NuPAGE 4%–12% Bis-Tris gels (Invitrogen), transferred to PVDF membranes, and immunoblotted with the antibodies indicated in the figure legends according to the manufacturer’s recommendations. The ZBP1 antibody (catalog PA5-20455; 1:1,000) used in this study was obtained from Thermo Fisher Scientific, and the c-GSDMD (catalog 10137S; 1:250), GSDMD (catalog 39754S; 1:1000), c-caspase-3 (catalog 9661L; 1:250), caspase-3 (catalog 9662S; 1:1,000), p-MLKL (catalog 37333S; 1:250), MLKL (catalog 37705S; 1:1,000), N1ICD (c-Notch1) (catalog 4147S; 1:250), and Notch1 (catalog 3608S; 1:1,000) antibodies were obtained from Cell Signaling Technology. GAPDH (catalog 60004-1-Ig; 1:10,000) and β-actin (catalog A5441, Sigma-Aldrich; 1:5,000) were obtained from ProteinTech. After the blots were incubated with primary antibodies, the membranes were washed 3 times, and the blots were subsequently incubated with the corresponding fluorescent secondary antibody (LI-COR). Bands were detected using an Odyssey FC Dual-Mode Imaging system 2800 (LI-COR).

[2] = tested on: C57BL/6 mice, CLP sepsis; assay: Lung injury score (H&E), CLP mice; type: in vivo, mouse; conditions: 20 h; for lung injury score (Figure 6J): 10 mg/kg NDI, score 0 to 1, individual values
Description: Sepsis was induced in mice by cecal ligation and puncture (CLP) as described previously ([45], [46]). Mice were anesthetized with isoflurane to a surgical plane and placed in a supine position. CLP was performed through a midline laparotomy. The abdomen was shaved and disinfected. Through a 2 cm midline incision, the cecum was exposed and then ligated with a 4-0 silk suture 1 cm proximal from the distal cecal extremity. […] A small amount of cecal content was extruded through both holes, and the ligated cecum was returned to the peritoneal cavity. The wound was closed in layers. […] A small amount of cecal content was extruded. […] Vehicle groups received an equivalent volume of PBS, while treatment groups received NDI 10 mg/kg in […] PBS via retro-orbital injection after CLP. This dose was chosen primarily on the basis of our laboratory’s prior experience, we have consistently used this dose in mouse CLP models with reproducible efficacy and without observable toxicity ([39], [44]). Sham-operated animals underwent a laparotomy without CLP. After closure, the mice received a subcutaneous injection of 0.5 mL of normal saline to overcome surgery-induced dehydration. […] All mice were subcutaneously injected with a single dose of 0.1 mg/kg buprenorphine after CLP. Lung tissues were fixed in 10% formalin before being embedded in paraffin. Blocks were cut into 5 μm sections and stained with H&E. Slides were evaluated under light microscopy to assess the degree of lung injury. Scoring was done using a system created by the American Thoracic Society ([47]). Scores ranged from 0 to 1 and were based on proteinaceous debris in the airspaces, the degree of septal thickening, and neutrophil infiltration in the alveolar and interstitial spaces. The average score per field was calculated at ×200 original magnification.

ECAGSPCHNGGTCEDGI [NDI]
effect on c-caspase-3 ([1]; 10 μM NDI, DLL4^+ neutrophil coculture): significantly reduced these markers of PANoptosis
c/t caspase-3 (Figure 4H) ([1]; DLL4^+ neutrophil coculture): 0.8975 and 0.9855 and 1.108 and 1.088 and 1.039 and 1.038
c/t caspase-3 (Figure 4H) ([1]; DLL4^– neutrophil coculture): 0.9343 and 1.21 and 1.29 and 1.079 and 1.0374 and 1.09
effect on lung injury ([2]; DLL4^+ neutrophil-injected CLP mice, 10 mg/kg): significantly lower lung injury scores
lung injury score (Figure 6J) ([2]; DLL4^+ neutrophils + CLP): 0.52 and 0.49 and 0.54 and 0.51 and 0.53
lung injury score (Figure 6J) ([2]; DLL4^– neutrophils + CLP): 0.58 and 0.44 and 0.52 and 0.48 and 0.54
